The subject of the assay is Septoria tritici (ATCC 26517). Briefly: Minimum Inhibitory Concentration (MIC) (Septoria tritici), CLSI-based microdilution. In kind it is cell-based. The note with it: Zymoseptoria tritici, ATCC26517, 168 h, S. tritici ATCC 26517; seven days at 22° C. in the dark; MIC = 50% reduction in growth, visual; read-out: Septoria MIC Rating. The protocol: B. Minimum Inhibitory Concentration (MIC) (Septoria tritici)
Compounds of the present disclosure were assessed for their ability to inhibit the growth of a common strain of the fungal plant pathogen Septoria tritici (ATCC 26517) using a procedure based on a Clinical and Laboratory Standards Institute (CLSI) microdilution assay protocol for filamentous fungi.
Stock solutions of the test compounds and standards were prepared in DMSO at 6400 μg/mL. Each stock solution was used to prepare a 2-fold dilution series ranging from 16 to 0.016 μg/mL (total of 11 compound concentrations) in RPMI-1640 (Roswell Park Memorial Institute) medium containing 3-(N-morpholino)propanesulfonic acid (MOPS) buffer and 2% DMSO. A 100 μL aliquot of the dilutions was added to columns 1 (16 μg/mL compound) through 11 (0.016 μg/mL compound) of a 96-well microtiter plate. This format was replicated in a second row of the microtiter plate. Thus, each microtiter plate could include 11 concentrations of four test or control compounds replicated twice. A 100 μL aliquot of RPMI-1640/MOPS/2% DMSO medium was added to column 12 (no compound control) of the microtiter plate.
A fresh culture of S. tritici was used to prepare a solution of approximately 5×10^4 colony-forming units per milliliter (cfu/mL) in RPMI/MOPS medium without DMSO. A 100 μL aliquot of this solution was added to all 96 wells in the microtiter plate. […] The assay plates were incubated at 22° C. for seven days in the dark without shaking.
Background: Broth dilution looks for growth in wells or tubes with falling amounts of substance.

In brackets after ≈: the same amount, converted by molar mass.

Usually MIC stands for the smallest concentration in the dilution series that meets the test's criterion for growth inhibition. As to `OC(Cn1cnnn1)(c1ccc(F)cc1F)C(F)(F)c1ccc(-c2ccc(SC(F)(F)F)cc2)cn1` (stereo not drawn) [Example 27, 2-(2,4-Difluorophenyl)-1,1-difluoro-3-(1H-tetrazol-1-yl)-1-(5-(4-((trifluoromethyl)thio)phenyl)pyridin-2-yl)propan-2-ol], the MIC was less than 0.5 µg/mL.

Turning to `OC(Cn1cncn1)(c1ccc(F)cc1F)C(F)(F)c1ccc(-c2ccc(F)cc2)cn1` (stereo not drawn) [Example 16, 2-(2,4-Difluorophenyl)-1,1-difluoro-1-(5-(4-fluorophenyl)pyridin-2-yl)-3-(1H-1,2,4-triazol-1-yl)propan-2-ol], the MIC was less than 0.5 µg/mL. For `OC(Cn1cnnn1)(c1ccc(F)cc1F)C(F)(F)c1ccc(-c2ccc(OCC(F)(F)F)cc2)cn1` (stereo not drawn) [Example 11, 2-(2,4-Difluorophenyl)-1,1-difluoro-3-(1H-tetrazol-1-yl)-1-(5-(4-(2,2,2-trifluoroethoxy)phenyl)pyridin-2-yl)propan-2-ol], the MIC is less than 0.5 µg/mL.

As to `OC(Cn1cnnn1)(c1ccc(Cl)cc1F)C(F)(F)c1ccc(-c2ccc(OC(F)(F)F)cc2)cn1` (stereo not drawn) [Example 34, 2-(4-Chloro-2-fluorophenyl)-1,1-difluoro-3-(1H-tetrazol-1-yl)-1-(5-(4-(trifluoromethoxy)phenyl)pyridin-2-yl)propan-2-ol], the MIC was less than 0.5 µg/mL. As for `OC(Cn1cnnn1)(c1ccc(F)cc1F)C(F)(F)c1ccc(-c2ccc(F)cc2)cn1` (stereo not drawn) [Example 5, 2-(2,4-Difluorophenyl)-1,1-difluoro-1-(5-(4-fluorophenyl)pyridin-2-yl)-3-(1H-tetrazol-1-yl)propan-2-ol], the MIC was less than 0.5 µg/mL. Turning to `OC(Cn1ncnn1)(c1ccc(F)cc1F)C(F)(F)c1ccc(-c2cccc(F)c2)cn1` (stereo not drawn) [Example 21], the MIC was greater than 4 µg/mL. As for `OC(Cn1cnnn1)(c1ccc(F)cc1F)C(F)(F)c1ccc(-c2ccc(N3CCOCC3)cc2)cn1` (stereo not drawn) [Example 36, 2-(2,4-Difluorophenyl)-1,1-difluoro-1-(5-(4-morpholinophenyl)pyridin-2-yl)-3-(1H-tetrazol-1-yl)propan-2-ol], the MIC was less than 0.5 µg/mL. As for `O=C(Nc1ccc(-c2ccc(C(F)(F)C(O)(Cn3cnnn3)c3ccc(F)cc3F)nc2)cc1)C(F)(F)F` (stereo not drawn) [Example 37, N-(4-(6-(2-(2,4-Difluorophenyl)-1,1-difluoro-2-hydroxy-3-(1H-tetrazol-1-yl)propyl)pyridin-3-yl)phenyl)-2,2,2-trifluoroacetamide], the MIC was less than 0.5 µg/mL. `CNC(=O)c1ccc(-c2ccc(C(F)(F)C(O)(Cn3cnnn3)c3ccc(F)cc3F)nc2)cc1` (stereo not drawn) [Example 42, 4-(6-(2-(2,4-Difluorophenyl)-1,1-difluoro-2-hydroxy-3-(1H-tetrazol-1-yl)propyl)pyridin-3-yl)-N-methylbenzamide]: the MIC is greater than 4 µg/mL. For the compound `OC(Cn1cnnn1)(c1ccc(F)cc1F)C(F)(F)c1ccc(-c2cccc(Cl)c2)cn1` (stereo not drawn) [Example 8, 1-(5-(3-Chlorophenyl)pyridin-2-yl)-2-(2,4-difluorophenyl)-1,1-difluoro-3-(1H-tetrazol-1-yl)propan-2-ol], the MIC was in the range of 0.5 to 1.5 µg/mL (≈ 1.08 to 3.23 µM). `OC(Cn1cnnn1)(c1ccc(F)cc1F)C(F)(F)c1ccc(-c2ccccc2)cn1` (stereo not drawn) [Example 35, 2-(2,4-Difluorophenyl)-1,1-difluoro-1-(5-phenylpyridin-2-yl)-3-(1H-tetrazol-1-yl)propan-2-ol]: the MIC is less than 0.5 µg/mL. As for `OC(Cn1cnnn1)(c1ccc(F)cc1F)C(F)(F)c1ccc(-c2ccc(SC(F)F)cc2)cn1` (stereo not drawn) [Example 40, 1-(5-(4-((Difluoromethyl)thio)phenyl)pyridin-2-yl)-2-(2,4-difluorophenyl)-1,1-difluoro-3-(1H-tetrazol-1-yl)propan-2-ol], the figure is less than 0.5 µg/mL; as for `OC(Cn1cnnn1)(c1ccc(F)cc1F)C(F)(F)c1ccc(-c2ccc(Cl)c(F)c2)cn1` (stereo not drawn) [Example 29, 1-(5-(4-Chloro-3-fluorophenyl)pyridin-2-yl)-2-(2,4-difluorophenyl)-1,1-difluoro-3-(1H-tetrazol-1-yl)propan-2-ol], 1.5 to 4 µg/mL (≈ 3.11 to 8.3 µM). For the compound `OC(Cn1cnnn1)(c1ccc(F)cc1F)C(F)(F)c1ccc(-c2ccc(OC(F)F)cc2)cn1` (stereo not drawn) [Example 38, 1-(5-(4-(Difluoromethoxy)phenyl)pyridin-2-yl)-2-(2,4-difluorophenyl)-1,1-difluoro-3-(1H-tetrazol-1-yl)propan-2-ol], the MIC was less than 0.5 µg/mL.

As to `N#Cc1ccc(-c2ccc(C(F)(F)C(O)(Cn3cnnn3)c3ccc(F)cc3F)nc2)cc1` (stereo not drawn) [Example 1, 4-(6-(2-(2,4-Difluorophenyl)-1,1-difluoro-2-hydroxy-3-(1H-tetrazol-1-yl)propyl)pyridin-3-yl)benzonitrile], the MIC was less than 0.5 µg/mL. As for `OC(Cn1ncnn1)(c1ccc(F)cc1F)C(F)(F)c1ccc(-c2ccc(C(F)(F)F)cc2)cn1` (stereo not drawn) [Example 22], the figure is greater than 4 µg/mL; as for `CC(F)(c1ccc(-c2ccc(OC(F)(F)F)cc2)cn1)C(O)(Cn1cnnn1)c1ccc(F)cc1F` (stereo not drawn) [Example 46, 2-(2,4-Difluorophenyl)-3-fluoro-1-(1H-tetrazol-1-yl)-3-(5-(4-(trifluoromethoxy)phenyl)-pyridin-2-yl)butan-2-ol], less than 0.5 µg/mL; as for `OC(Cn1cnnn1)(c1ccc(F)cc1F)C(F)(F)c1ccc(-c2ccc(OC(F)(F)F)cc2)cn1` (stereo not drawn) [Example 7, 2-(2,4-Difluorophenyl)-1,1-difluoro-3-(1H-tetrazol-1-yl)-1-(5-(4-(trifluoromethoxy)phenyl)-pyridin-2-yl)propan-2-ol], less than 0.5 µg/mL. Consider `CC(C)Oc1ccc(-c2ccc(C(F)(F)C(O)(Cn3cnnn3)c3ccc(F)cc3F)nc2)cc1` (stereo not drawn) [Example 4, 2-(2,4-Difluorophenyl)-1,1-difluoro-1-(5-(4-isopropoxyphenyl)pyridin-2-yl)-3-(1H-tetrazol-1-yl)propan-2-ol], for which the MIC was less than 0.5 µg/mL. `O=C(c1ccc(-c2ccc(C(F)(F)C(O)(Cn3cnnn3)c3ccc(F)cc3F)nc2)cc1)C(F)(F)F` (stereo not drawn) [Example 33, 1-(4-(6-(2-(2,4-Difluorophenyl)-1,1-difluoro-2-hydroxy-3-(1H-tetrazol-1-yl)propyl)pyridin-3-yl)phenyl)-2,2,2-trifluoroethanone]: the MIC lay in the range of 0.5 to 1.5 µg/mL (≈ 0.952 to 2.86 µM). `Oc1ccc(-c2ccc(C(F)(F)C(O)(Cn3cnnn3)c3ccc(F)cc3F)nc2)cc1` (stereo not drawn) [Example 23, 4-(6-(2-(2,4-Difluorophenyl)-1,1-difluoro-2-hydroxy-3-(1H-tetrazol-1-yl)propyl)pyridin-3-yl)phenol]: the MIC lay within 1.5 to 4 µg/mL (≈ 3.37 to 8.98 µM). In the case of `OC(Cn1cnnn1)(c1ccc(F)cc1F)C(F)(F)c1ccc(-c2ccc(OCCC(F)(F)F)cc2)cn1` (stereo not drawn) [Example 44, 2-(2,4-Difluorophenyl)-1,1-difluoro-3-(1H-tetrazol-1-yl)-1-(5-(4-(3,3,3-trifluoropropoxy)phenyl)pyridin-2-yl)propan-2-ol], the MIC was in the range of 0.5 to 1.5 µg/mL (≈ 0.923 to 2.77 µM). For the compound `OC(Cn1cnnn1)(c1ccc(F)cc1F)C(F)(F)c1ccc(-c2ccc(SCC(F)(F)F)cc2)cn1` (stereo not drawn) [Example 45, 2-(2,4-Difluorophenyl)-1,1-difluoro-3-(1H-tetrazol-1-yl)-1-(5-(4-((2,2,2-trifluoroethyl)thio)phenyl)pyridin-2-yl)propan-2-ol], the MIC is less than 0.5 µg/mL. On to `OC(Cn1cnnn1)(c1ccc(F)cc1F)C(F)(F)c1ccc(-c2cc(F)ccc2F)cn1` (stereo not drawn) [Example 10, 2-(2,4-Difluorophenyl)-1-(5-(2,5-difluorophenyl)pyridin-2-yl)-1,1-difluoro-3-(1H-tetrazol-1-yl)propan-2-ol], for which the MIC was less than 0.5 µg/mL.

(Values after patent US9414596B2, “Metalloenzyme inhibitor compounds” (Viamet Pharmaceuticals, Inc., priority 2012, dated 2016).)
